#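 Results reflect a 48-hour exposure of cells in 96-well plates to compound at five concentrations. The concentration for 50% growth inhibition is given as GI50.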 Activity calls are given as the source filed them. No stated cut-off is given here; in the data, active = GI50 up to about 1.1 µM and inactive = higher.
# What was measured:
# Assay in all cases: DTP human tumour cell line panel, 48 h
# IGROV-1 = test system: IGROV-1
# SF-539 = test system: SF-539
# HT-29 = test system: HT-29
# RPMI-8226 = test system: RPMI-8226
# TK-10 = test system: TK-10
# SK-MEL-5 = test system: SK-MEL-5
# SNB-19 = test system: SNB-19
# UACC-62 = test system: UACC-62
# U-251 = test system: U-251
# SK-MEL-28 = test system: SK-MEL-28
# HL-60 = test system: HL-60
# OVCAR-4 = test system: OVCAR-4
# K562 = test system: K562
# OVCAR-5 = test system: OVCAR-5
# A498 = test system: A498
# KM12 = test system: KM12
# Malme-3M = test system: Malme-3M
# MDA-N = test system: MDA-N
# T47D = test system: T47D
# SNB-75 = test system: SNB-75
SMILES,GI50 (IGROV-1),GI50 (SF-539),GI50 (HT-29),GI50 (RPMI-8226),GI50 (TK-10),GI50 (SK-MEL-5),GI50 (SNB-19),GI50 (UACC-62),GI50 (U-251),GI50 (SK-MEL-28),GI50 (HL-60),GI50 (OVCAR-4),GI50 (K562),GI50 (OVCAR-5),GI50 (A498),GI50 (KM12),GI50 (Malme-3M),GI50 (MDA-N),GI50 (T47D),GI50 (SNB-75)
Cn1c(=O)c2c(nc(-n3nc(-c4ccc(Cl)cc4)cc3N)n2C)n(C)c1=O,> 100 µM (inactive),17.3 µM (inactive),> 100 µM (inactive),69.7 µM (inactive),> 100 µM (inactive),6.37 µM (inactive),> 100 µM (inactive),65.6 µM (inactive),> 100 µM (inactive),> 100 µM (inactive),> 100 µM (inactive),5.6 µM (inactive),67.6 µM (inactive),79.8 µM (inactive),> 100 µM (inactive),> 100 µM (inactive),7.13 µM (inactive),> 100 µM (inactive),–,–
CC(=O)O[C@H]1C(=O)[C@@]2(C)[C@H]([C@H](OC(=O)c3ccccc3)[C@]3(O)C[C@H](OC(=O)[C@H](O)[C@@H](NC(=O)c4ccccc4)C4CCCCC4)C(C)=C1C3(C)C)[C@]1(OC(C)=O)CO[C@@H]1C[C@@H]2O,< 0.01 µM (active),< 0.01 µM (active),< 0.01 µM (active),< 0.01 µM (active),0.0352 µM (active),< 0.01 µM (active),0.013 µM (active),< 0.01 µM (active),< 0.01 µM (active),34.1 µM (inactive),< 0.01 µM (active),0.0227 µM (active),< 0.01 µM (active),< 0.01 µM (active),–,< 0.01 µM (active),23.6 µM (inactive),< 0.01 µM (active),< 0.01 µM (active),–
O=C(Cc1ccccc1)NCCCN(CCCCN(CCCNC(=O)Cc1ccccc1)C(=O)OCc1ccccc1)C(=O)OCc1ccccc1,> 100 µM (inactive),> 100 µM (inactive),> 24.8 µM (inactive),4.19 µM (inactive),> 100 µM (inactive),–,–,> 100 µM (inactive),> 100 µM (inactive),> 100 µM (inactive),–,–,7.24 µM (inactive),> 100 µM (inactive),> 75.9 µM (inactive),> 100 µM (inactive),–,> 100 µM (inactive),> 36.4 µM (inactive),–
CC(=O)OCc1ccc(O)c(C=O)c1,> 100 µM (inactive),> 100 µM (inactive),> 100 µM (inactive),> 100 µM (inactive),> 100 µM (inactive),> 100 µM (inactive),92.3 µM (inactive),71.3 µM (inactive),74.8 µM (inactive),> 100 µM (inactive),39.6 µM (inactive),> 100 µM (inactive),73.6 µM (inactive),> 100 µM (inactive),–,> 100 µM (inactive),> 100 µM (inactive),64.6 µM (inactive),51.3 µM (inactive),> 100 µM (inactive)
CC(C)(C)CN1[C@@H]2CCCC[C@H]2N(CC(C)(C)C)P1(=O)Cc1ccccc1,11 µM (inactive),17.3 µM (inactive),10.1 µM (inactive),–,12.5 µM (inactive),12.2 µM (inactive),14.6 µM (inactive),10.7 µM (inactive),13.4 µM (inactive),16.9 µM (inactive),11.3 µM (inactive),10.4 µM (inactive),13.6 µM (inactive),12.7 µM (inactive),–,13.1 µM (inactive),13.5 µM (inactive),14.9 µM (inactive),10.1 µM (inactive),11.4 µM (inactive)
COC(C/C(=C/CO[Si](C(C)C)(C(C)C)C(C)C)C(=O)N(COCC[Si](C)(C)C)c1ccccc1I)OC,0.0247 µM (active),–,60.3 µM (inactive),> 100 µM (inactive),63.1 µM (inactive),20.1 µM (inactive),26.1 µM (inactive),15.6 µM (inactive),22.8 µM (inactive),14 µM (inactive),–,42.2 µM (inactive),> 100 µM (inactive),32.4 µM (inactive),> 100 µM (inactive),31.8 µM (inactive),–,37.4 µM (inactive),32.6 µM (inactive),> 100 µM (inactive)
CCOC(=O)Nc1[nH]cc(-c2ccccc2)c1C#N,> 100 µM (inactive),–,> 100 µM (inactive),> 100 µM (inactive),> 100 µM (inactive),> 100 µM (inactive),> 100 µM (inactive),> 100 µM (inactive),> 100 µM (inactive),> 100 µM (inactive),> 100 µM (inactive),> 100 µM (inactive),> 100 µM (inactive),> 100 µM (inactive),> 100 µM (inactive),> 100 µM (inactive),> 100 µM (inactive),> 100 µM (inactive),–,> 100 µM (inactive)
